Here are results for two molecules from US9504702B2, “Methods of inhibition of protein fucosylation in vivo using fucose analogs” (Seattle Genetics, Inc., priority 2010, dated 2016).

Test [1] concerns LP-1, a human multiple myeloma cell line (IgG fucosylation). The experiment in a line: Fucosylation of LP-1-generated IgG, AOL dot blot. It counts as cell-based. An outline of the steps: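 LP-1 cells (250,000 cells/mL) treated with 100 μM of each analog for 5 days at 37° C in IgG-depleted RPMI/10% FBS. Secreted IgG purified on protein A, ~0.5 μg dot-blotted (Ponceau S loading check) and probed with 5 μg/ml biotinylated AOL, detected with streptavidin-HRP.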

Test [2] relates to core antibody fucosylation (endogenous antibodies). The experiment in a line: Antibody fucosylation in vivo following oral administration, dose study (Example 3), dot blot. More on the design: species or system Female BALC/c mice. The method, then:
In this study, the effects of oral administration of the fucose analog 2-fluorofucose (SGD-2083) were further examined. Female BALC/c mice were offered […] 2-fluorofucose in their drinking water for 14 days. Mice were immunized with TiterMAX Classic and offered 1, 10 and 100 mM 2-fluorofucose in their drinking water for an additional 7 days. Mice were then terminally bled and serum obtained. Endogenous antibodies were purified by passing the serum over a protein A column
The collected antibodies were evaluated for fucosylation levels by dot blot as follows. Antibodies from untreated and treated animals (0.5 μg each), as well as standards of cAC10 with 0 to 100% fucose (only study 1), were blotted onto a nitrocellulose membrane. The proteins levels were visualized with Ponceau S. The blot was probed with biotinylated AOL lectin and developed with streptavidin HRP and ECL (as described above). Gel loading (visible) and fucose signals (bioluminescence) were measured with an Alpha Innotech camera and quantitated with the machine software.

For test [3], the system named is circulating white blood cells and neutrophils; lymph nodes. The experiment in a line: Leukocytosis and lymph node cellularity following oral dosing. It is filed as in vivo, Female Balb/c mice. As to the method:
(§1) The effects of a fucose analog on leukocytosis and E-selectin binding were eamined in mice. Female Balb/c mice were given oral 2-fluorofucose (SGD-2083) in the drinking water or left untreated. Mice were bled prior to dosing and then weekly for three weeks to assess circulating cell numbers and their ability to bind E-selectin. In one study, 2-fluorofucose was formulated at 1 mM, 10 mM or 100 mM in the drinking water (n=3 per group). At day 14, mice were treated with TiterMAX® Classic adjuvant (Sigma) to stimulate polyclonal, antigen non-specific antibody production by B cells, and remained on the 2-fluorofucose-containing water through day 21. In a second study, mice were given oral 2-fluorofucose formulated at 10 mM and 100 mM in the drinking water for three weeks without any other treatments (n=6). On day 21, a pool of lymph nodes (axillary, brachial, superficial inguinal, and mesenteric) from each of three animals was assessed in addition to blood. Lymph nodes were homogenized into single cell suspensions, and total cell numbers were determined by counting on a hemcytometer, using Trypan Blue for dead cell exclusion. To determine total white cell numbers/μL blood, samples of blood from individual animals were counted on a hemacytometer, using Turk's solution (0.01% gentian violet in 3% acetic acid) to exclude red blood cells (RBCs). RBCs were eliminated from the remainder of the blood by osmotic lysis for flow cytometric analysis. Cells were incubated with anti-Gr-1-FITC antibodies (BD Biosciences) to identify neutrophils, and a recombinant E-selectin-human Fc fusion protein (R&D Systems). Cells were washed and then incubated with a PE-labeled goat anti-human IgG-Fc secondary antibody (Jackson Immunoresearch) to detect bound E-selectin. Samples were collected on a FACSCalibur flow cytometer and analyzed using CellQuest software. The percentage of Gr-1+ cells was determined and absolute number of neutrophils was calculated using the total white cell number from the hemacytometer count. In addition, flow samples were gated for Gr-1+ cells to assess E-selectin binding to neutrophils by histogram analysis. The geometric mean of the E-selectin fluorescent signal was determined from the histogram.

The subject of test [4] is E-selectin binding to neutrophils. The experiment in a line: E-selectin binding to neutrophils following oral dosing, flow cytometry. It counts as in vivo, Female Balb/c mice. As to the method:
as §1, with “In addition, flow samples were gated for Gr-1+ cells to assess E-selectin binding to neutrophils by histogram analysis.” left out
In general terms: A flow cytometer gives signals particle by particle.

Test [5] concerns HL-60 acute mylogenous leukemia. Briefly: Xenograft of pre-treated HL-60 cells (Example 7, Study 2). It is filed as in vivo, female SCID mice. The conditions noted are these: 20 mM in drinking water. As to the method: To further evaluate the activity of these fucose analogs, further studies were performed in vivo using tumor cells that had been pre-treated by culturing in the presence of a fucose analog, or using untreated tumor cells. Tumor cells were implanted into 10 mice per group as follows. For the LS174T, PC-3, and Caki-1 cell lines, 5×10^5 cells in 25% Matrigel were implanted subcutaneously into female nude mice. For HL-60 and Ramos cell lines, 5×10^6 cells were implanted subcutaneously into female SCID mice. For mice implanted with untreated tumor cells, mice were provided regular drinking water. For mice implanted with tumor cells pre-treated with 2-fluorofucose (SGD-2083), the mice were provided drinking water supplemented with 20 mM 2-fluorofucose (SGD-2083). For mice implanted with tumor cells pre-treated with alkylnyl fucose (SGD-1887), the mice were provided with regular drinking water.
After 3 weeks of receiving 2-fluorofucose-containing drinking water, mice were returned to regular drinking water, except for mice with Caki-1 tumors. The latter mice were returned to regular drinking water for one week. After the week of receiving regular water, mice were randomized to two groups of 5 each to receive drinking water supplemented with 20 mM 2-fluorofucose or regular drinking water. Mice were sacrificed when tumors reached about 1000 mm^3.

For test [6], the system named is LS174T colon adenocarcinoma cells. The experiment in a line: Xenograft of LS174T cells without prior treatment (Example 7, Study 3). It counts as in vivo, female nude mice. The method, then: In a third study, tumor cells were implanted without prior treatment with a fucose analog. LS174T colon adenocarcinoma cells (5×10^5 cells in 25% Matrigel) were implanted subcutaneously into female nude mice. Mice were supplied with 50 mM 2-fluorofucose (SGD-2083) in their drinking water from 7 days before implant until 21 days after implant, or were supplied with regular drinking water.

Where [7] appears, read: oral in drinking water, dose-dependent.

Consider `C#CC(OC(C)=O)[C@@H](OC(C)=O)[C@@H](OC(C)=O)[C@@H](C=O)OC(C)=O` (stereo partly shown) [SGD-1890, 5-ethynylarabinose tetraacetate], for which the “inhibition of IgG fucosylation in human cells (decrease in AOL signal, dot blot)” value in test [1] (100 μM, LP-1 cells) is recorded as “potentially strong inhibitors”. Further, in test [1] (LP-1-generated IgG, 100 μM), the “dot blot results (% fucose signal of control)” value was ~1 % fucose signal of control.
`C[C@H](O)[C@@H](O)[C@@H](O)[C@H](F)C=O` [SGD-2083, 2-fluoro-2-deoxy fucose]: the antibody fucosylation levels result in test [2] (1 mM in drinking water) is “highest in the untreated control and 1 mM 2-fluorofucose groups”; in test [2] (intermediate concentration (10 mM) in drinking water, compared with 100 mM), “nearly as depleted of fucose as the high concentration”. Also, the “fucosylation levels of antibodies” value in test [2] (1, 10 and 100 mM in drinking water, 21 days) is “dose-dependent decrease”. In test [1] (Homo sapiens, LP-1, 120 h, 5 days, LP-1 cells, AOL dot blot, multiple samples separated by semicolon, read-out: % of control fucosylated IgG value), the activity at 100 µM was 66%. The “effect on circulating white blood cells and neutrophils” value in test [3] (1 mM in drinking water) is given as “very little effect”; in test [3] (10 mM and 100 mM in drinking water), “increasing effect”. The “cellularity in the lymph nodes” value in test [3] (day 21, second study, 10 mM and 100 mM in drinking water, more severe at 100 mM) was “marked decreased”. For the same molecule, the “circulating white blood cells and neutrophils” value in test [3] (setting [7]) was “increase”. Also, the “effect on E-selectin binding to neutrophils” value in test [4] (1 mM) is reported as “little effect”; in test [4] (10 mM and 100 mM), “increasing effects”. The “E-selectin binding to neutrophils” value in test [4] (setting [7]) is on record as “decreased”. Besides, the tumor growth result in test [5] is “No change in tumor growth”; in test [6] (50 mM in drinking water), “substantial inhibition of tumor growth”. Further, in test [6] (50 mM in drinking water from 7 days before until 21 days after implant, regular water 734 mm^3), the average tumor size came to 110 mm^3.
